From PubChem BioAssay (NCI)
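Compound exposure: 48 hours, 5 concentrations, 96-well plates. The concentration for 50% growth inhibition is given as GI50. TGI is the concentration that stops growth completely.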

Assays:
Test in all cases: growth of human tumour cells (NCI), 48 h
[1] = tested on: HCT-116 colon
[2] = tested on: SNB-19 CNS
[3] = tested on: SF-268 CNS
[4] = tested on: RPMI-8226 leukemia
[5] = tested on: HOP-62 NSCLC
[6] = tested on: OVCAR-4 ovarian
[7] = tested on: RXF 393 renal
[8] = tested on: U251 CNS
[9] = tested on: TK-10 renal
[10] = tested on: HOP-92 NSCLC

| Structure (SMILES) | GI50 [1] [µM] | TGI [1] [µM] | GI50 [2] [µM] | TGI [2] [µM] | GI50 [3] [µM] | TGI [3] [µM] | GI50 [4] [µM] | TGI [4] [µM] | GI50 [5] [µM] | TGI [5] [µM] | GI50 [6] [µM] | TGI [6] [µM] | GI50 [7] [µM] | TGI [7] [µM] | GI50 [8] [µM] | TGI [8] [µM] | GI50 [9] [µM] | TGI [9] [µM] | GI50 [10] [µM] | TGI [10] [µM] |
| --- | --- | --- | --- | --- | --- | --- | --- | --- | --- | --- | --- | --- | --- | --- | --- | --- | --- | --- | --- | --- |
| COc1cc(CN(c2ccc(C)cc2)C2OC(=O)c3ccccc32)cc(OC)c1OC (stereo unspecified) | 0.501 | > 100 | 0.689 | > 100 | 1.97 | > 100 | 0.455 | > 100 | 0.627 | > 67.4 | 2.93 | > 100 | 0.141 | 0.52 | 0.397 | > 100 | 2.51 | > 100 | 0.449 | > 100 |
| Nc1ccccc1C(=O)NC(=O)Nc1ccc(Oc2ncc(Br)cn2)c(Cl)c1 | – | 12.1 | – | 14.7 | – | 18.9 | – | 29.6 | – | 4.03 | – | 10.2 | – | 0.458 | – | 12.4 | – | 13.8 | 0.303 | 6.66 |
| COc1cccc2nc3c(C(=O)NCCN(C)C)cccc3nc12 | – | 37 | – | > 91.8 | – | 1.84 | – | > 63.8 | – | 38.2 | – | 26.7 | – | 26.7 | – | 59.1 | – | 61 | – | 28.8 |
| CCc1nn2ncccc2c1-c1ccnc(NC2CC2)n1 | > 25 | > 25 | > 25 | > 25 | > 25 | > 25 | > 25 | > 25 | > 25 | > 25 | > 25 | > 25 | > 23.4 | > 25 | > 25 | > 25 | > 25 | > 25 | > 6.73 | > 25 |
